Data set [1] concerns Ad-TSHR-immunized mice. The data set is described as follows: thyroid size at end of experiment in Graves' disease mouse model. The format is in vivo, BALB/c mice. To be noted: 1 mg/kg IV 4-weekly. The procedure:
Representative images are shown. In FIG. 4B, the effects of peptide therapy on thyroid sizes were investigated at the end of the experiment. The measurements were carried out in Ad-TSHR-immunized mice treated by either 4-weekly injections with vehicle (0.9% NaCl, “Graves' no therapy”, n=25 mice), or administrations of 1 mg/kg body weight of peptide of the invention 836 (12 mice), or of peptide 829 (13 mice), or of TSHR-Fc (18 mice), or of control peptide 835 (13 mice). In addition, age-matched immunologically naïve unimmunized mice (“healthy”, 19 animals) were investigated. The mean thyroid sizes in mm^3 are shown with SEM. Differences between groups were tested by AVOVA followed by post hoc LSD testing. ** indicates statistical significance (p<0.001) compared to the TSHR-immunized group treated with only NaCl (“Graves' no therapy”).
(§1) The study protocol used three 3-weekly immunizations (“initiation”) and followed by a “maintenance” phase with further regular 4-weekly boosts until the 9th immunisation, as described before (22). Mice were randomly assigned to therapeutic groups. Therapy (either 1 mg/kg body weight peptides or 0.9% NaCl vehicle control) was given 1 week after the 4th immunization by IV injection into a tail vein, and then continued at 4-weekly intervals, as described before for the treatment of anti-β1AR (16). The fusion protein TSHR-Fc was given IV at identical times at doses of 1 mg/kg, but had to be applied together with the histamine receptor blocker clemastin (Tavegil®) at a dose of 0.02 mg per mouse (25 g body weight) to avoid clinical symptoms of allergic reaction, which had been observed in initial pilot studies of TSHR-Fc administration in mice.
After euthanasia, dissection of the thyroid glands was performed under a stereomicroscope, as described before (22). Briefly, cross cuts at the level above the larynx and below the seventh cartilage ring were made and the glands with the tracheae and oesophagi were removed from the necks. Tissue blocks were kept in 4% neutral para-formaldehyde (PFA), washed in PBS 3 times and embedded in optimum cutting temperature (OCT) formulation (Tissue-Tek® O.C.T.™ compound, VWR Chemicals, Leuven, Belgium). Consecutive 5 μm-thick cross sections were cut at a fixed distance of 500 μm using a Leica microtome CM 1850 Cryostat (temperature at −19° C.) and mounted on Thermo Polysine slides (Thermo Scientific, Cat J2800AMNZ). […] Thyroid volumes (mm^3) were calculated from the sum of the areas of each section over the whole cutting region. Myocardial volumes (mm^3) were calculated in a similar way as described for thyroid glands from the sum of the areas of each section over whole cutting region (5 to 6 slides, depending on respective size of the hearts). […]

Data set [2] deals with Ad-TSHR-immunized mice. The data set is described as follows: serum thyroxin (T4) levels in Graves' disease mouse model. Type of data set: in vivo, BALB/c mice. Conditions: 1 mg/kg IV 4-weekly, after start of therapy (week 11). The protocol: In FIG. 5 the effects of peptide therapy on serum thyroxin levels were evaluated. The measurements were carried out in Ad-TSHR-immunized mice treated by either 4-weekly injections with vehicle (0.9% NaCl, “Graves' no therapy”, n=25 mice), or administrations of 1 mg/kg body weight of peptide of the invention 836 (12 mice), or of peptide 829 (13 mice), or TSHR-Fc (18 mice), or of control peptide 835 (13 mice). In addition, age-matched immunologically naïve unimmunized mice (“healthy”, 19 animals) were investigated. Data are represented as means±SEM. Significance over time was tested by analysis of variance (ANOVA) of groups at given time points, and controlled by ANOVA for repeated measurements within one group, followed by LSD post-hoc testing. *p<0.05, and **p<0.005, compared to the TSHR-immunized group treated with only NaCl (“Graves' no therapy”).
as §1
Total thyroxine (T4) was measured by immunoassay kit (#T4044T-100, Calbiotech Inc, Austin, Calif.) in duplicate determination.

Data set [3] concerns Ad-TSHR-immunized mice. The data set is described as follows: ECG heart rates in Graves' disease mouse model. Type of data set: in vivo, BALB/c mice. To be noted: 1 mg/kg IV 4-weekly, ECG under anaesthesia. The protocol:
(§2) In FIG. 7 the effect of the peptide therapy on heart rates at various times during the experiment (A), and on heart weights (B) and cardiac ventricular volumes (C) at the end of the experiment were evaluated in all animals. The measurements were carried out in Ad-TSHR-immunized mice treated by either 4-weekly injections with vehicle (0.9% NaCl, “Graves' no therapy”, n=25 mice), or administrations of 1 mg/kg body weight of peptide of the invention 836 (12 mice), or of peptide 829 (13 mice), or TSHR-Fc (18 mice). In addition, age-matched immunologically naïve unimmunized mice (“healthy”, 19 animals) were investigated. Data are represented as mean±SEM. Significance over time was tested by analysis of variance (ANOVA) of groups at given time points, and controlled by ANOVA for repeated measurements within one group, followed by LSD post-hoc testing. *p<0.05, and **p<0.005, compared to the TSHR-immunized group treated with only NaCl (“Graves' no therapy”).
When mice were subjected to anaesthesia for immunisation, their heart function was monitored with an electrocardiogram (ECG amplifier module, Harvard Apparatus, Hugo Sachs electronics) and recorded with a special software, which allows to determine the heart rate from the ECG reading (Haemodyn, Hugo Sachs electronics). ECG was also performed in anaesthesia before animals were euthanized for histological exam at the end of the study.

Data set [4] has as its system Ad-TSHR-immunized mice. The data set is described as follows: heart weights upon necropsy. Conditions: 1 mg/kg IV 4-weekly, necropsy at end of experiment. The format is in vivo, BALB/c mice. The protocol:
as §2
Due to unavailability of some fine histological sections, analysis of this parameter in mice treated with other peptides could unfortunately not be completed.

Data set [5] is classed as physicochemical. The text has this:
Peptide 836 is a 24-meric cyclic peptide corresponding to the eighth TSHR LRD loop, and peptide 829 (also 24-meric) to the first loop of the TSHR LRD.

As for NAFQGLCNETLTLKLYNNGFTSVQ [peptide 835], in the data set on Ad-TSHR-immunized mice [1], the thyroid size result is recorded as “did not show any effects”. Further, the “serum thyroxin (T4) levels” value with Ad-TSHR-immunized mice [2] is on record as “did not result in any effects”. Besides, the heart rate entry with Ad-TSHR-immunized mice [3] was “did not show any effects”. The heart weights entry in the data set on Ad-TSHR-immunized mice [4] is “did not show any effects”. Besides, the solubility in water result in data set [5] is on record as “easily soluble in water”.
